According to ChEMBL document CHEMBL1201862, “PubChem BioAssay data set” (2004):
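1) Cells in 96-well plates. 2) Compound, 48 h, 5 concentrations. 3) Linear interpolation between surrounding doses. 4) Unreached endpoint = highest concentration. Here, GI50 denotes the concentration required for 50% inhibition of growth.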 Active and inactive are the calls of the source. No stated cut-off is given here; in the data, active = GI50 up to about 1.1 µM and inactive = higher.

Key:
Assay in all cases: NCI-60 cell line screen, 48 h
786-0 = tested on: 786-0
A498 = tested on: A498
A549 = tested on: A549
ACHN = tested on: ACHN
CAKI-1 = tested on: CAKI-1
CCRF-CEM = tested on: CCRF-CEM
COLO 205 = tested on: COLO 205
DU-145 = tested on: DU-145
EKVX = tested on: EKVX
HCC 2998 = tested on: HCC 2998
HCT-116 = tested on: HCT-116
HCT-15 = tested on: HCT-15
HL-60 = tested on: HL-60
HOP-62 = tested on: HOP-62
HOP-92 = tested on: HOP-92
HT-29 = tested on: HT-29
Hs-578T = tested on: Hs-578T
IGROV-1 = tested on: IGROV-1
K562 = tested on: K562
KM12 = tested on: KM12
LOX IMVI = tested on: LOX IMVI
M14 = tested on: M14
MCF7 = tested on: MCF7
MDA-MB-231 = tested on: MDA-MB-231
MDA-MB-435 = tested on: MDA-MB-435
MDA-N = tested on: MDA-N
MOLT-4 = tested on: MOLT-4
Malme-3M = tested on: Malme-3M
NCI-H226 = tested on: NCI-H226
NCI-H23 = tested on: NCI-H23
NCI-H460 = tested on: NCI-H460
NCI-H522 = tested on: NCI-H522
NCI/ADR-RES = tested on: NCI/ADR-RES
OVCAR-3 = tested on: OVCAR-3
OVCAR-4 = tested on: OVCAR-4
OVCAR-8 = tested on: OVCAR-8
PC-3 = tested on: PC-3
RPMI-8226 = tested on: RPMI-8226
RXF 393 = tested on: RXF 393
SF-268 = tested on: SF-268
SF-295 = tested on: SF-295
SF-539 = tested on: SF-539
SK-MEL-28 = tested on: SK-MEL-28
SK-MEL-2 = tested on: SK-MEL-2
SK-MEL-5 = tested on: SK-MEL-5
SK-OV-3 = tested on: SK-OV-3
SN12C = tested on: SN12C
SNB-19 = tested on: SNB-19
SNB-75 = tested on: SNB-75
SR = tested on: SR
SW-620 = tested on: SW-620
T47D = tested on: T47D
TK-10 = tested on: TK-10
U-251 = tested on: U-251
UACC-257 = tested on: UACC-257
UACC-62 = tested on: UACC-62
UO-31 = tested on: UO-31
BT-549 = tested on: BT-549
OVCAR-5 = tested on: OVCAR-5

With `CCN(CC)c1ccc(NC(=S)NN(C)C)cc1` the GI50 (786-0) was > 10 µM (inactive), the GI50 (A498) was > 10 µM (inactive) and the GI50 (A549) was > 10 µM (inactive). The GI50 (ACHN) was > 10 µM (inactive), the GI50 (CAKI-1) was > 10 µM (inactive) and the GI50 (CCRF-CEM) was > 10 µM (inactive). For the same molecule, the GI50 (COLO 205) was > 10 µM (inactive), the GI50 (DU-145) was > 10 µM (inactive) and the GI50 (EKVX) was > 10 µM (inactive). For the same molecule, the GI50 (HCC 2998) was > 10 µM (inactive), the GI50 (HCT-116) was > 10 µM (inactive) and the GI50 (HCT-15) was over 10 µM. The GI50 (HL-60) was > 10 µM (inactive), the GI50 (HOP-62) was > 10 µM (inactive) and the GI50 (HOP-92) was > 10 µM (inactive). The GI50 (HT-29) was > 10 µM (inactive), the GI50 (Hs-578T) was > 10 µM (inactive) and the GI50 (IGROV-1) was > 10 µM (inactive). For the same molecule, the GI50 (K562) was > 10 µM (inactive), the GI50 (KM12) was > 10 µM (inactive) and the GI50 (LOX IMVI) was > 10 µM (inactive). The GI50 (M14) was > 10 µM (inactive), the GI50 (MCF7) was > 10 µM (inactive) and the GI50 (MDA-MB-231) was > 10 µM (inactive). The GI50 (MDA-MB-435) was > 10 µM (inactive), the GI50 (MDA-N) was > 10 µM (inactive) and the GI50 (MOLT-4) was > 10 µM (inactive). For the same molecule, the GI50 (Malme-3M) was > 10 µM (inactive), the GI50 (NCI-H226) was > 10 µM (inactive) and the GI50 (NCI-H23) was > 10 µM (inactive). For the same molecule, the GI50 (NCI-H460) was > 10 µM (inactive), the GI50 (NCI-H522) was > 10 µM (inactive) and the GI50 (NCI/ADR-RES) was > 10 µM (inactive). The GI50 (OVCAR-3) was > 10 µM (inactive), the GI50 (OVCAR-4) was > 10 µM (inactive) and the GI50 (OVCAR-8) was > 10 µM (inactive). For the same molecule, the GI50 (PC-3) was > 10 µM (inactive), the GI50 (RPMI-8226) was > 10 µM (inactive) and the GI50 (RXF 393) was > 10 µM (inactive). For the same molecule, the GI50 (SF-268) was > 10 µM (inactive), the GI50 (SF-295) was > 10 µM (inactive) and the GI50 (SF-539) was > 10 µM (inactive). For the same molecule, the GI50 (SK-MEL-28) was > 10 µM (inactive), the GI50 (SK-MEL-2) was > 10 µM (inactive) and the GI50 (SK-MEL-5) was > 10 µM (inactive). The GI50 (SK-OV-3) was > 10 µM (inactive), the GI50 (SN12C) was > 10 µM (inactive) and the GI50 (SNB-19) was > 10 µM (inactive). For the same molecule, the GI50 (SNB-75) was > 10 µM (inactive), the GI50 (SR) was > 10 µM (inactive) and the GI50 (SW-620) was > 10 µM (inactive). The GI50 (T47D) was > 10 µM (inactive), the GI50 (TK-10) was > 10 µM (inactive) and the GI50 (U-251) was > 10 µM (inactive). For the same molecule, the GI50 (UACC-257) was > 10 µM (inactive), the GI50 (UACC-62) was > 10 µM (inactive) and the GI50 (UO-31) was > 10 µM (inactive).

For `CCOC(=O)c1nc2ccccc2nc1NCc1ccc(OC)cc1`, the GI50 (786-0) was > 100 µM (inactive), the GI50 (A498) was 32.2 µM (inactive) and the GI50 (A549) was > 100 µM (inactive). For the same molecule, the GI50 (ACHN) was > 100 µM (inactive), the GI50 (BT-549) was > 100 µM (inactive) and the GI50 (CAKI-1) was > 100 µM (inactive). For the same molecule, the GI50 (CCRF-CEM) was > 100 µM (inactive), the GI50 (COLO 205) was > 100 µM (inactive) and the GI50 (DU-145) was > 100 µM (inactive). For the same molecule, the GI50 (EKVX) was > 100 µM (inactive), the GI50 (HCC 2998) was > 100 µM (inactive) and the GI50 (HCT-116) was 54.8 µM (inactive). The GI50 (HCT-15) was over 100 µM, the GI50 (HL-60) was > 100 µM (inactive) and the GI50 (HOP-62) was > 100 µM (inactive). The GI50 (HOP-92) was > 100 µM (inactive), the GI50 (HT-29) was 96.4 µM (inactive) and the GI50 (Hs-578T) was 40.5 µM (inactive). For the same molecule, the GI50 (IGROV-1) was > 100 µM (inactive), the GI50 (K562) was > 100 µM (inactive) and the GI50 (KM12) was 44.6 µM (inactive). For the same molecule, the GI50 (LOX IMVI) was > 100 µM (inactive), the GI50 (MCF7) was 47.4 µM (inactive) and the GI50 (MDA-MB-231) was 99.8 µM (inactive). The GI50 (MDA-MB-435) was > 100 µM (inactive), the GI50 (MOLT-4) was > 100 µM (inactive) and the GI50 (Malme-3M) was > 100 µM (inactive). The GI50 (NCI-H226) was > 100 µM (inactive), the GI50 (NCI-H23) was > 100 µM (inactive) and the GI50 (NCI-H460) was 82.8 µM (inactive). For the same molecule, the GI50 (NCI-H522) was 56.9 µM (inactive), the GI50 (NCI/ADR-RES) was 68.1 µM (inactive) and the GI50 (OVCAR-3) was > 100 µM (inactive). The GI50 (OVCAR-4) was > 100 µM (inactive), the GI50 (OVCAR-5) was > 100 µM (inactive) and the GI50 (OVCAR-8) was > 100 µM (inactive). The GI50 (RPMI-8226) was > 100 µM (inactive), the GI50 (RXF 393) was 23.4 µM (inactive) and the GI50 (SF-268) was > 100 µM (inactive). For the same molecule, the GI50 (SF-295) was > 100 µM (inactive), the GI50 (SF-539) was > 100 µM (inactive) and the GI50 (SK-MEL-28) was > 100 µM (inactive). The GI50 (SK-MEL-5) was > 100 µM (inactive), the GI50 (SK-OV-3) was > 100 µM (inactive) and the GI50 (SNB-75) was 48.8 µM (inactive). For the same molecule, the GI50 (SR) was > 100 µM (inactive), the GI50 (SW-620) was > 100 µM (inactive) and the GI50 (T47D) was 80.9 µM (inactive). The GI50 (TK-10) was 17 µM (inactive), the GI50 (U-251) was 64.3 µM (inactive) and the GI50 (UACC-257) was > 100 µM (inactive). The GI50 (UACC-62) was 84.1 µM (inactive) and the GI50 (UO-31) was > 100 µM (inactive).
